Experiments:
B16 melanoma cells = assay: Luciferase transfection of B16 cells with FGF receptor targeted lipoplexes; type: cell-based; settings: same experimental conditions as RG2
Procedure: FIG. 13. Transfection of B16 cells by implementation of FGF receptor targeted lipoplexes. Transfection With CXCR4-ligand targeted lipoplexes leads to increased transfection-efficiency in vitro. Whether increased specific binding to cells expressing the targeted receptor leads to increased transfection-efficiency in vitro is tested by transfecting cells with targeted and untargeted lipoplexes expressing the reporter-enzyme luciferase. Many tumor cell-lines express CXCR4, including the RG2 cell-line (as confirmed by flow cytometry; data not shown). These cells are efficiently transfected with lipoplexes prepared as described in the materials and methods section. Transfection of cells with untargeted lipoplexes coding for GFP at a dose of 1 μg DNA per 50,000 cells typically leads to a 30-40% transfection-efficiency after 48 hours (data not shown). However, whenever the lipid-composition of the optimized formulation was changed by titrating in cysteine-modified DOPE-MPB (DOPE-MPB-Cys) or DOPE instead of Lym-X-Sorb (i.e. modification of helper-lipids); the transfection-efficiency decreased steadily. Even at low concentrations of DOPE-MPB-Cys and DOPE (1 molepercent) transfection-efficiency as measured by luciferase-expression after 48 hours (1 μg per well) was decreased by about 30% (100% being 4*10^4 RLU equivalent to 35 ng recombinant luciferase per well). […]

RG2 cells = assay: Luciferase gene transfer activity of modified lipoplexes in RG2 cells; type: cell-based, rat; settings: 48 hours, 1 μg per well
Procedure: FIG. 12. In vitro gene transfer activity of lipoplexes modified with different lipids. Complexes with DOPE-MPB-Cys, DOPE or CXCR4-lipopeptide were incubated with RG2 cells (1 μg pLC0888/well). Each point is an average of three wells ±SD.
Preparation of lipoplexes. The lipid-based transfection-reagent (Genzyme lipid 89:Lym-X-Sorb:Vitamin E 10:89:1) was prepared aseptically by mixing 8 μl of Genzyme lipid 89 (25 mg/ml in chloroform or 0.038 μmoles/μl) (Genzyme, Cambridge, Mass.); 7.5 μl Lym-X-Sorb (138 mg/ml in chloroform or 0.365 μmoles/μl) (Avanti Polar Lipids, Birmingham, Ala.) and 2.2 μl Vitamin E (5.905 mg/ml or 0.0137 μmoles/μl) (Sigma, St Louis, Mo.) in a clean reagent-tube. Once the lipids were thoroughly mixed the solvent was evaporated using argon. Residual solvent was removed by placing the vial under a vacuum in the desiccator for 30 mins. The dried lipid-film was hydrated with 3 ml of HEPES Buffered Saline (HBS; 7.5 mM HEPES, 150 mM NaCl). After hydration the transfection-mixture was bath-sonicated for 5 minutes. […]
Luciferase-Assay. […] 150 μl of lysisbuffer (0.1 M potassium phosphate buffer; 1% Tx-100; 1 mM DTT; 2 mM EDTA; pH=7.8) (Sigma, St. Louis, Mo.) was added to each well and the plate was stored at −80° C. for 10 minutes or until ready to be assayed. […]

CCCCCCCC/C=C\CCCCCCCC(=O)OC[C@H](COP(=O)(O)OCCN)OC(=O)CCCCCCC/C=C\CCCCCCCC [DOPE]
luciferase expression / transfection efficiency as a function of mol % of modifier lipid (B16 melanoma cells): decreased luciferase expression | decrease of transfection-efficiency as measured by luciferase-expression (RG2 cells; 1 molepercent modification-lipid instead of Lym-X-Sorb): about 30% | transfection-efficiency (luciferase) (RG2 cells; 20 molepercent modification-lipid): 3.9±1.1 % of control

Source: patent US20080207544A1, “Compositions And Methods For Delivery Of Agents Into Cells” (priority 2005, published 2008)
